Measurements as given in ChEMBL document CHEMBL5724806, “Unraveling interindividual differences and functional consequences of gut microbial metabolism of immunosuppressants” (2024).

Legend:
Type in all cases: ADME
[1] = (§1) The drug is tested on Actinomyces graevenitzii strain: DSM15540 for biotransformation under microaerobic condition. The drug concentrations were measured over 6 timepoints collected between 0 and 12 hours of incubation by liquid-chromatography-coupled mass spectrometry (LC–MS); parameters: dose 5 uM, timepoint 0, 1.5, 3, 6, 9, 12 hours; settings: 5 µM
[2] = (§2) The drug is tested on Roseburia intestinalis strain: DSM14610 for biotransformation under anaerobic condition. The drug concentrations were measured over 6 timepoints collected between 0 and 12 hours of incubation by liquid-chromatography-coupled mass spectrometry (LC–MS); parameters: dose 5 uM, timepoint 0, 1.5, 3, 6, 9, 12 hours; settings: 5 µM
[3] = The drug is tested on Gemella haemolysans strain: DSM107751 for biotransformation under anaerobic condition. The drug concentrations were measured over 6 timepoints collected between 0 and 12 hours of incubation by liquid-chromatography-coupled mass spectrometry (LC–MS); parameters: dose 5 uM, timepoint 0, 1.5, 3, 6, 9, 12 hours; settings: 5 µM
[4] = The drug is tested on Akkermansia muciniphila strain: DSM22959 for biotransformation under anaerobic condition. The drug concentrations were measured over 6 timepoints collected between 0 and 12 hours of incubation by liquid-chromatography-coupled mass spectrometry (LC–MS); parameters: dose 5 uM, timepoint 0, 1.5, 3, 6, 9, 12 hours; settings: 5 µM
[5] = The drug is tested on Actinomyces naeslundi strain: DSM43013 for biotransformation under anaerobic condition. The drug concentrations were measured over 6 timepoints collected between 0 and 12 hours of incubation by liquid-chromatography-coupled mass spectrometry (LC–MS); parameters: dose 5 uM, timepoint 0, 1.5, 3, 6, 9, 12 hours; settings: actinomyces naeslundii, 5 µM
[6] = as §2, with “the gut metagenome community of P-01 with ENA study accession number: PRJEB31790” for “Roseburia intestinalis strain: DSM14610”, “7” for “6”; parameters: dose 5 uM, timepoint 0, 0.75, 1.5, 3, 6, 9, 12 hours; settings: 5 µM
[7] = The drug is tested on Collinsella aerofaciens strain: DSM3979 for biotransformation under anaerobic condition. The drug concentrations were measured over 6 timepoints collected between 0 and 12 hours of incubation by liquid-chromatography-coupled mass spectrometry (LC–MS); parameters: dose 5 uM, timepoint 0, 1.5, 3, 6, 9, 12 hours; settings: 5 µM
[8] = as §1, with “the gut metagenome community of A-02 with ENA study accession number: PRJEB31790” for “Actinomyces graevenitzii strain: DSM15540”, “7” for “6”; parameters: dose 5 uM, timepoint 0, 0.75, 1.5, 3, 6, 9, 12 hours; settings: 5 µM
[9] = The drug is tested on Clostridium bolteae strain: DSM15670 for biotransformation under anaerobic condition. The drug concentrations were measured over 6 timepoints collected between 0 and 12 hours of incubation by liquid-chromatography-coupled mass spectrometry (LC–MS); parameters: dose 5 uM, timepoint 0, 1.5, 3, 6, 9, 12 hours; settings: enterocloster bolteae, 5 µM
[10] = as §2, with “the gut metagenome community of P-02 with ENA study accession number: PRJEB31790” for “Roseburia intestinalis strain: DSM14610”, “7” for “6”; parameters: dose 5 uM, timepoint 0, 0.75, 1.5, 3, 6, 9, 12 hours; settings: 5 µM
[11] = The drug is tested on Streptococcus sanguinis strain: DSM20567 for biotransformation under anaerobic condition. The drug concentrations were measured over 6 timepoints collected between 0 and 12 hours of incubation by liquid-chromatography-coupled mass spectrometry (LC–MS); parameters: dose 5 uM, timepoint 0, 1.5, 3, 6, 9, 12 hours; settings: 5 µM
[12] = as §1, with “the gut metagenome community of A-08 with ENA study accession number: PRJEB31790” for “Actinomyces graevenitzii strain: DSM15540”, “7” for “6”; parameters: dose 5 uM, timepoint 0, 0.75, 1.5, 3, 6, 9, 12 hours; settings: 5 µM
[13] = The drug is tested on Blautia hansenii strain: DSM20583 for biotransformation under anaerobic condition. The drug concentrations were measured over 6 timepoints collected between 0 and 12 hours of incubation by liquid-chromatography-coupled mass spectrometry (LC–MS); parameters: dose 5 uM, timepoint 0, 1.5, 3, 6, 9, 12 hours; settings: 5 µM
[14] = The drug is tested on Eubacterium hallii strain: DSM3353 for biotransformation under anaerobic condition. The drug concentrations were measured over 6 timepoints collected between 0 and 12 hours of incubation by liquid-chromatography-coupled mass spectrometry (LC–MS); parameters: dose 5 uM, timepoint 0, 1.5, 3, 6, 9, 12 hours; settings: anaerobutyricum hallii, 5 µM
[15] = as §1, with “the gut metagenome community of A-04 with ENA study accession number: PRJEB31790” for “Actinomyces graevenitzii strain: DSM15540”, “7” for “6”; parameters: dose 5 uM, timepoint 0, 0.75, 1.5, 3, 6, 9, 12 hours; settings: 5 µM
[16] = as §2, with “the gut metagenome community of A-10 with ENA study accession number: PRJEB31790” for “Roseburia intestinalis strain: DSM14610”, “7” for “6”; parameters: dose 5 uM, timepoint 0, 0.75, 1.5, 3, 6, 9, 12 hours; settings: 5 µM
[17] = The drug is tested on Gemella haemolysans strain: DSM107751 for biotransformation under microaerobic condition. The drug concentrations were measured over 6 timepoints collected between 0 and 12 hours of incubation by liquid-chromatography-coupled mass spectrometry (LC–MS); parameters: dose 5 uM, timepoint 0, 1.5, 3, 6, 9, 12 hours; settings: 5 µM
[18] = The drug is tested on Bacteroides xylanisolvens strain: HM 722 for biotransformation under anaerobic condition. The drug concentrations were measured over 6 timepoints collected between 0 and 12 hours of incubation by liquid-chromatography-coupled mass spectrometry (LC–MS); parameters: dose 5 uM, timepoint 0, 1.5, 3, 6, 9, 12 hours; settings: 5 µM
[19] = as §2, with “the gut metagenome community of A-05 with ENA study accession number: PRJEB31790” for “Roseburia intestinalis strain: DSM14610”, “7” for “6”; parameters: dose 5 uM, timepoint 0, 0.75, 1.5, 3, 6, 9, 12 hours; settings: 5 µM
[20] = as §2, with “the gut metagenome community of T-04 with ENA study accession number: PRJEB31790” for “Roseburia intestinalis strain: DSM14610”, “7” for “6”; parameters: dose 5 uM, timepoint 0, 0.75, 1.5, 3, 6, 9, 12 hours; settings: 5 µM
[21] = The drug is tested on Bifidobacterium longum strain: DSM20088 for biotransformation under anaerobic condition. The drug concentrations were measured over 6 timepoints collected between 0 and 12 hours of incubation by liquid-chromatography-coupled mass spectrometry (LC–MS); parameters: dose 5 uM, timepoint 0, 1.5, 3, 6, 9, 12 hours; settings: 5 µM
[22] = The drug is tested on Gemella morbillorum strain: DSM20572 for biotransformation under anaerobic condition. The drug concentrations were measured over 6 timepoints collected between 0 and 12 hours of incubation by liquid-chromatography-coupled mass spectrometry (LC–MS); parameters: dose 5 uM, timepoint 0, 1.5, 3, 6, 9, 12 hours; settings: 5 µM
[23] = The drug is tested on Alloscardovia omnicolens strain: DSM21503 for biotransformation under anaerobic condition. The drug concentrations were measured over 6 timepoints collected between 0 and 12 hours of incubation by liquid-chromatography-coupled mass spectrometry (LC–MS); parameters: dose 5 uM, timepoint 0, 1.5, 3, 6, 9, 12 hours; settings: 5 µM
[24] = The drug is tested on Escherichia coli strain: DSM27469 for biotransformation under anaerobic condition. The drug concentrations were measured over 6 timepoints collected between 0 and 12 hours of incubation by liquid-chromatography-coupled mass spectrometry (LC–MS); parameters: dose 5 uM, timepoint 0, 1.5, 3, 6, 9, 12 hours; settings: 5 µM
[25] = The drug is tested on Clostridium ramosum strain: DSM1402 for biotransformation under anaerobic condition. The drug concentrations were measured over 6 timepoints collected between 0 and 12 hours of incubation by liquid-chromatography-coupled mass spectrometry (LC–MS); parameters: dose 5 uM, timepoint 0, 1.5, 3, 6, 9, 12 hours; settings: thomasclavelia ramosa, 5 µM
[26] = as §1, with “the gut metagenome community of P-02 with ENA study accession number: PRJEB31790” for “Actinomyces graevenitzii strain: DSM15540”, “7” for “6”; parameters: dose 5 uM, timepoint 0, 0.75, 1.5, 3, 6, 9, 12 hours; settings: 5 µM
[27] = The drug is tested on Escherichia coli strain: DSM27469 for biotransformation under microaerobic condition. The drug concentrations were measured over 6 timepoints collected between 0 and 12 hours of incubation by liquid-chromatography-coupled mass spectrometry (LC–MS); parameters: dose 5 uM, timepoint 0, 1.5, 3, 6, 9, 12 hours; settings: 5 µM
[28] = The drug is tested on Streptococcus salivarius strain: DSM20560 for biotransformation under anaerobic condition. The drug concentrations were measured over 6 timepoints collected between 0 and 12 hours of incubation by liquid-chromatography-coupled mass spectrometry (LC–MS); parameters: dose 5 uM, timepoint 0, 1.5, 3, 6, 9, 12 hours; settings: 5 µM
[29] = as §1, with “the gut metagenome community of P-04 with ENA study accession number: PRJEB31790” for “Actinomyces graevenitzii strain: DSM15540”, “7” for “6”; parameters: dose 5 uM, timepoint 0, 0.75, 1.5, 3, 6, 9, 12 hours; settings: 5 µM
[30] = The drug is tested on Lactobacillus paracasei strain: ATCC27092 for biotransformation under microaerobic condition. The drug concentrations were measured over 6 timepoints collected between 0 and 12 hours of incubation by liquid-chromatography-coupled mass spectrometry (LC–MS); parameters: dose 5 uM, timepoint 0, 1.5, 3, 6, 9, 12 hours; settings: lacticaseibacillus paracasei, 5 µM

Row | SMILES | Bacterial Biotransformation [1] | Bacterial Biotransformation [2] | Bacterial Biotransformation [3] | Bacterial Biotransformation [4] | Bacterial Biotransformation [5] | Bacterial Biotransformation [6] | Bacterial Biotransformation [7] | Bacterial Biotransformation [8] | Bacterial Biotransformation [9] | Bacterial Biotransformation [10] | Bacterial Biotransformation [11] | Bacterial Biotransformation [12] | Bacterial Biotransformation [13] | Bacterial Biotransformation [14] | Bacterial Biotransformation [15] | Bacterial Biotransformation [16] | Bacterial Biotransformation [17] | Bacterial Biotransformation [18] | Bacterial Biotransformation [19] | Bacterial Biotransformation [20] | other results
1 | CO[C@H]1C[C@@H]2CC[C@@H](C)[C@@](O)(O2)C(=O)C(=O)N2CCCC[C@H]2C(=O)O[C@H]([C@H](C)C[C@@H]2CC[C@@H](OCCO)[C@H](OC)C2)CC(=O)[C@H](C)/C=C(\C)[C@@H](O)[C@@H](OC)C(=O)[C@H](C)C[C@H](C)/C=C/C=C/C=C/1C [EVEROLIMUS] | Compound NOT metabolized | Compound metabolized | Compound NOT metabolized | Compound NOT metabolized | Compound NOT metabolized | Compound NOT metabolized | Compound metabolized | Compound metabolized | Compound metabolized | Compound NOT metabolized | Compound NOT metabolized | Compound metabolized | Compound metabolized | Compound metabolized | Compound metabolized | Compound metabolized | Compound NOT metabolized | Compound NOT metabolized | Compound metabolized | Compound NOT metabolized | Bacterial Biotransformation [21]: Compound NOT metabolized; Bacterial Biotransformation [22]: Compound NOT metabolized; Bacterial Biotransformation [23]: Compound NOT metabolized; Bacterial Biotransformation [24]: Compound NOT metabolized; Bacterial Biotransformation [25]: Compound NOT metabolized; Bacterial Biotransformation [26]: Compound NOT metabolized; Bacterial Biotransformation [27]: Compound NOT metabolized; Bacterial Biotransformation [28]: Compound NOT metabolized; Bacterial Biotransformation [29]: Compound NOT metabolized; Bacterial Biotransformation [30]: Compound NOT metabolized
2 | NS(=O)(=O)c1cc(C(=O)O)c(NCc2ccco2)cc1Cl [FUROSEMIDE] | Compound NOT metabolized | Compound NOT metabolized | Compound NOT metabolized | Compound NOT metabolized | Compound NOT metabolized | Compound NOT metabolized | Compound NOT metabolized | Compound NOT metabolized | Compound NOT metabolized | Compound NOT metabolized | Compound NOT metabolized | Compound NOT metabolized | Compound NOT metabolized | Compound NOT metabolized | Compound NOT metabolized | Compound NOT metabolized | Compound NOT metabolized | Compound NOT metabolized | Compound NOT metabolized | Compound NOT metabolized | Bacterial Biotransformation [21]: Compound NOT metabolized; Bacterial Biotransformation [22]: Compound NOT metabolized; Bacterial Biotransformation [23]: Compound NOT metabolized; Bacterial Biotransformation [24]: Compound NOT metabolized; Bacterial Biotransformation [25]: Compound NOT metabolized; Bacterial Biotransformation [26]: Compound NOT metabolized; Bacterial Biotransformation [27]: Compound NOT metabolized; Bacterial Biotransformation [28]: Compound NOT metabolized; Bacterial Biotransformation [29]: Compound NOT metabolized; Bacterial Biotransformation [30]: Compound NOT metabolized
3 | C[C@]12CCC(=O)C=C1CC[C@@H]1[C@@H]2[C@@H](O)C[C@@]2(C)[C@H]1CC[C@]2(O)C(=O)CO [HYDROCORTISONE] | Compound NOT metabolized | Compound NOT metabolized | Compound NOT metabolized | Compound NOT metabolized | Compound NOT metabolized | Compound metabolized | Compound NOT metabolized | Compound metabolized | Compound metabolized | Compound NOT metabolized | Compound NOT metabolized | Compound metabolized | Compound NOT metabolized | Compound NOT metabolized | Compound metabolized | Compound metabolized | Compound NOT metabolized | Compound NOT metabolized | Compound metabolized | Compound NOT metabolized | Bacterial Biotransformation [21]: Compound NOT metabolized; Bacterial Biotransformation [22]: Compound NOT metabolized; Bacterial Biotransformation [23]: Compound NOT metabolized; Bacterial Biotransformation [24]: Compound NOT metabolized; Bacterial Biotransformation [25]: Compound NOT metabolized; Bacterial Biotransformation [26]: Compound NOT metabolized; Bacterial Biotransformation [27]: Compound NOT metabolized; Bacterial Biotransformation [28]: Compound NOT metabolized; Bacterial Biotransformation [29]: Compound metabolized; Bacterial Biotransformation [30]: Compound NOT metabolized
